In PubChem BioAssay (NCI):
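How tested: cells in 96-well plates exposed to compound for 48 hours at five concentrations. GI50 is the concentration that inhibits growth by half. TGI: total growth inhibition.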

Experiments:
Assay in all cases: inhibition of tumour cell growth, NCI panel, 48 h
A549 NSCLC = test system: A549 NSCLC
IGROV1 ovarian = test system: IGROV1 ovarian
KM12 colon = test system: KM12 colon
MALME-3M melanoma = test system: MALME-3M melanoma
MOLT-4 leukemia = test system: MOLT-4 leukemia
OVCAR-4 ovarian = test system: OVCAR-4 ovarian
RXF 393 renal = test system: RXF 393 renal
SK-MEL-28 melanoma = test system: SK-MEL-28 melanoma
UACC-62 melanoma = test system: UACC-62 melanoma
UO-31 renal = test system: UO-31 renal

SMILES	TGI (A549 NSCLC) [µM]	TGI (IGROV1 ovarian) [µM]	TGI (KM12 colon) [µM]	TGI (MALME-3M melanoma) [µM]	TGI (MOLT-4 leukemia) [µM]	TGI (OVCAR-4 ovarian) [µM]	TGI (RXF 393 renal) [µM]	TGI (SK-MEL-28 melanoma) [µM]	TGI (UACC-62 melanoma) [µM]	TGI (UO-31 renal) [µM]	GI50 (A549 NSCLC) [µM]	GI50 (IGROV1 ovarian) [µM]	GI50 (KM12 colon) [µM]	GI50 (MALME-3M melanoma) [µM]	GI50 (MOLT-4 leukemia) [µM]	GI50 (OVCAR-4 ovarian) [µM]	GI50 (RXF 393 renal) [µM]	GI50 (SK-MEL-28 melanoma) [µM]	GI50 (UACC-62 melanoma) [µM]	GI50 (UO-31 renal) [µM]
COc1cc(/C=N/N=C(\N)NO)ccc1O	> 100	> 100	> 100	> 100	> 100	> 100	> 100	> 100	> 100	> 100										
CC(C)C(=O)Nc1ccc(-c2nc(-c3cccc(OCCN4CCOCC4)c3)c(-c3ccnc(Br)c3)[nH]2)cc1	> 100	> 100	> 100	3.3	> 100	> 100	2.91	5.02	5.71	7.23	3.73	3.75	3.2	1.58	2.31	4.46	1.24	1.98	2.1	2.36
CC(C)NC(=O)OCc1nnn2c1CCC2	> 100	> 100	> 100	> 100	> 100	> 100	> 100	> 100	> 100	> 100										
O=c1ccc2c(Cl)cccc2o1	> 100	> 100	> 100	> 100	> 100	> 100	> 100	> 100	> 100	> 100										
CSC1=C(SC)C(=O)c2cn(C)c(=O)cc2C1=O	36.9	25.4	48.3	5.41	3.52	3.74	3.43	6.69	7.21	3.13										
CC(C(=O)NCCNC(=O)CCCC(=O)N(C)O)C(=O)NCCNC(=O)CCCC(=O)N(C)O	> 100	> 100	> 100	> 100	> 100	> 100	> 100	> 100	> 100	> 100										
C1=Nc2ccccc2Cn2nncc21	> 100	> 100	> 100	> 100	> 100	> 100	> 100	> 100	55.3	> 100										
OC(c1ccccc1)C1CC2C=CC1C2 (stereo not given)	> 100	> 100	> 100	> 100	> 100	> 100	> 100	> 100	> 100	> 100										
COc1ccc(N2C(=O)C(=O)N(C)C2=O)c2ccccc12	> 10	> 10	> 10	> 10	> 10	> 10	> 10	> 10	> 10	> 10										
COC1=CC(=O)c2c(c(COC(C)=O)cn2C)C1=O	0.509	0.443	0.763	0.117	0.653	1.04	0.309	0.516	0.283	0.551										
CC1(CO)C(O)CCC2(C)C1C(O)CC1CC3CC12CCC3(O)CO (stereo not given)	> 225	> 225	> 225	> 225	> 141	> 225	> 225	> 225	> 225	> 225										
Fc1ccc(Nc2ncc(-c3cc(F)c(Cl)cc3Cl)s2)cc1Cl	31.3	> 100	13.3	31.2	18.6	> 100	24.3	> 100	26.5	42.1	14.9	26.2	2.69	14	5.46	26.5	6.67	79.9	8.41	17.1
